Laboratory results as given in US20240425529A1, “BORIC ACID DERIVATIVE” (SHOUYAO HOLDINGS (BEIJING) CO., LTD., priority 2021, published 2024).
pIC50: −log10 of the molar value.

What was measured:
[1] = Animal pharmacokinetic study in rats, single gavage; type: in vivo; settings: rat, po; male rats, single gavage 5 mg/kg, plasma
Method: Three healthy adult male rats from Beijing Vital River Experimental animal Technology Co. Ltd were used for animal pharmacokinetic experiments. The compounds were suspended in 20% sulfobutyl ether-β-cyclodextrin (W/W/V) at a concentration of 1 mg/mL at a dosing volume of 5 mL/kg by single gavage at a dose of 5 mg/kg. Animals were fasted overnight before the experiment, from 10 hours before the administration to 4 hours after the administration. Blood was collected at 0.25, 0.5, 1, 2, 4, 6, 8, and 24 hours after the administration. The animals were anesthetized with isoflurane. About 0.4 mL of whole blood was collected from the orbital venous plexus using a glass blood collection tube and placed in a heparin anticoagulant tube. The sample was centrifuged at 4200 rpm for 5 min at 4° C. The plasma was transferred to a centrifuge tube and stored at −80° C. for later analysis. The plasma sample analysis used the acetonitrile protein precipitation method to extract the compound to be tested and internal standard (Warfarin or Propranolol) from rat plasma, and the extraction solution was analyzed by LC/MS/MS. The plasma concentration-time data of individual animals measured were analyzed using anon-compartmental model using the WinNonlin (version 5.2.1; Pharsight company) software, and the following pharmacokinetic parameters were obtained: maximum (peak) plasma drug concentration Cmax; Time to max Tmax; the area under the curve AUC0-inf of blood drug concentration-time from half-life T½ and extrapolation to infinite time.

β5 = target: T1, β5 (Homo sapiens, UniProt P28074); assay: Enzymatic inhibitory activity on β5 (HEK-293 cell lysate, Ac-WLA-AMC substrate); type: biochemical; settings: 1 hour pre-incubation
T1 construct: using HEK-293 cell lysate as the enzyme source of D5; endogenous in cells; host or cells: HEK-293 (human embryonic kidney cells)
How it was run: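 HEK-293 lysate (25 ng/μl final) preincubated 1 h at 23 °C with compound (9-point, 5-fold dilutions) in 20 mM Tris pH 8.0, 0.5 mM EDTA. Ac-WLA-AMC then added at 20 μM final for 2 h at 23 °C in the dark. AMC fluorescence read at Ex 345/Em 445 nm; IC50 from curve fit.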

| AUC(0-inf) [1] [ng·h/mL] | Cmax [1] [ng/mL] | Tmax [1] [h] | half-life [1] [h] | pIC50 (β5) | Structure (SMILES) |
| --- | --- | --- | --- | --- | --- |
| 26500 | 3930 | 0.58 | 14.7 | 6.55 | O=C(Nc1ccccn1)C(=O)N[C@@H](Cc1coc2ccccc12)B(O)O [Ex. 12] |
| 24200 | 1910 | 3.33 | 5.17 | 7.35 | O=C(Nc1nc2ccccc2s1)C(=O)N[C@@H](Cc1coc2ccccc12)B(O)O [Ex. 27, (R)-(2-(benzofuran-3-yl)-1-(2-oxo-2-((benzo[d]thiazol-2-yl)amino)acetamido)ethyl)boronic acid] |
| 22200 | 1090 | 0.67 | 25.3 | 7.20 | Cc1cnc(NC(=O)C(=O)N[C@@H](Cc2coc3ccccc23)B(O)O)s1 [Ex. 32, (R)-(2-(benzofuran-3-yl)-1-(2-oxo-2-((5-methylthiazol-2-yl)amino)acetamido)ethyl)boronic acid] |
| 25400 | 1430 | 0.92 | 16.4 | 7.21 | O=C(Nc1cc(Cl)ccn1)C(=O)N[C@@H](Cc1coc2ccccc12)B(O)O [Ex. 49, (R)-(2-(benzofuran-3-yl)-1-(2-oxo-2-((4-chloropyridin-2-yl)amino)acetamido)ethyl)boronic acid] |

| Structure (SMILES) | AUC(0-inf) [1] [ng·h/mL] | Cmax [1] [ng/mL] | Tmax [1] [h] | half-life [1] [h] | pIC50 (β5) |
| --- | --- | --- | --- | --- | --- |
| O=C(Nc1cnccn1)C(=O)N[C@@H](Cc1coc2ccccc12)B(O)O [Ex. 9, (R)-(2-(benzofuran-3-yl)-1-(2-oxo-2-(pyrazin-2-ylamino)acetamido)ethyl) boronic acid] | 38600 | 3880 | 2.67 | 5.58 | 7.01 |
| CC1CC(C)(C)OB([C@H](Cc2coc3ccccc23)NC(=O)C(=O)Nc2cnccn2)O1 (stereo partly drawn) [Ex. 67] | – | – | – | – | 7.42 |
| O=C1COB([C@H](Cc2coc3ccccc23)NC(=O)C(=O)Nc2cnccn2)O1 [Ex. 73] | – | – | – | – | 7.68 |
